Data reported in the NIST ThermoML archive (doi:10.1021/acs.jced.5b01039).
Where “and” joins values, the source holds several entries; their conditions need not be identical. Identical values can stand only once.

Conditions: Liquid; for vapor or sublimation pressure: Closed cell (Static) method; for mass density: Pycnometric method

F/C=C/C(F)(F)F [trans-1,3,3,3-tetrafluoropropene]
Conditions	mass density	vapor or sublimation pressure
300 K	1157.7 kg/m3 and 1158 kg/m3	526.8 kPa and 526.6 kPa
310 K	1122.8 kg/m3	703.2 kPa and 702.4 kPa
320 K	1085.1 kg/m3	919.6 kPa and 919 kPa
330 K	1045.3 kg/m3 and 1044.7 kg/m3	1182.6 kPa and 1182.3 kPa
340 K	1000.9 kg/m3 and 1001.5 kg/m3	1498.4 kPa and 1498.6 kPa
350 K	950.3 kg/m3 and 950.6 kg/m3	1874 kPa and 1874.1 kPa
360 K	889.8 kg/m3	2318 kPa and 2319.2 kPa
370 K	810.1 kg/m3	2841.4 kPa and 2842.7 kPa
380 K	668.8 kg/m3 and 670.4 kg/m3	3460 kPa and 3461.5 kPa

F/C=C\C(F)(F)F [(Z)-1,3,3,3-tetrafluoro-1-propene]
Conditions	mass density	vapor or sublimation pressure
300 K	1218.6 kg/m3 and 1219.2 kg/m3	185.9 kPa and 186.4 kPa
310 K	1191.2 kg/m3	260.4 kPa and 260.6 kPa
320 K	1162 kg/m3 and 1163.5 kg/m3	355.3 kPa and 355.1 kPa
330 K	1132.5 kg/m3 and 1131.5 kg/m3	473.3 kPa and 473.5 kPa
340 K	1100.2 kg/m3 and 1101.7 kg/m3	619 kPa and 619.2 kPa
350 K	1066.1 kg/m3 and 1067.3 kg/m3	795.2 kPa and 794.7 kPa
360 K	1032.6 kg/m3 and 1032.3 kg/m3	1007.3 kPa
370 K	993 kg/m3 and 993.3 kg/m3	1258.9 kPa and 1258.7 kPa
380 K	951.5 kg/m3 and 949.7 kg/m3	1554.1 kPa and 1556.9 kPa
390 K	900.5 kg/m3 and 901.4 kg/m3	1903.6 kPa and 1903.7 kPa
400 K	843.9 kg/m3 and 843.6 kg/m3	2308.3 kPa and 2308.8 kPa
